Reference: ChEMBL document CHEMBL3232987, “Investigation of Ugi-4CC derived 1H-tetrazol-5-yl-(aryl) methyl piperazinyl-6-fluoro-4-oxo-1,4-dihydroquinoline-3-carboxylic acid: synthesis, biology and 3D-QSAR analysis” (Eur J Med Chem, 2014)
Values after ≈ are worked out from the molar mass of the structure shown.

Tests used:
[1] = tested on: Staphylococcus aureus; experiment: Antibacterial activity against gentamicin-resistant Staphylococcus aureus ATCC 33592 after 24 hrs by spectrophotometric analysis; assay type: functional, organism-based
[2] = tested on: L929; experiment: Cytotoxicity against mouse L929 cells assessed as cell viability up to MIC 0.39 ug/ml after 24 hrs by MTT assay; assay type: cell-based; conditions: l929, 24 h
[3] = tested on: Staphylococcus aureus; experiment: Antibacterial activity against methicillin-resistant Staphylococcus aureus ATCC 700699 by NCCLS two-fold dilution method; assay type: functional
[4] = tested on: Staphylococcus aureus; experiment: Antibacterial activity against gentamicin-resistant Staphylococcus aureus ATCC 33592 by NCCLS two-fold dilution method; assay type: functional
[5] = tested on: Staphylococcus aureus; experiment: Antibacterial activity against Staphylococcus aureus ATCC 25923 by NCCLS two-fold dilution method; assay type: functional; conditions: for MIC: Staphylococcus aureus, ATCC 25923
[6] = tested on: Staphylococcus aureus; experiment: Antibacterial activity against Staphylococcus aureus ATCC 29213 by NCCLS two-fold dilution method; assay type: functional
[7] = tested on: Staphylococcus aureus; experiment: Antibacterial activity against Staphylococcus aureus ATCC 25923 after 24 hrs by spectrophotometric analysis; assay type: functional, organism-based
[8] = tested on: Staphylococcus aureus; experiment: Antibacterial activity against methicillin-resistant Staphylococcus aureus ATCC 700699 after 24 hrs by spectrophotometric analysis; assay type: functional, organism-based
[9] = tested on: Staphylococcus aureus; experiment: Antibacterial activity against Staphylococcus aureus ATCC 29213 after 24 hrs by spectrophotometric analysis; assay type: functional, organism-based
[10] = tested on: Escherichia coli; experiment: Antibacterial activity against Escherichia coli after 24 hrs by spectrophotometric analysis; assay type: functional, organism-based
[11] = tested on: Klebsiella pneumoniae; experiment: Antibacterial activity against Klebsiella pneumoniae after 24 hrs by spectrophotometric analysis; assay type: functional, organism-based
[12] = Staphylococcus aureus, ATCC 33592, 24 h
[13] = Staphylococcus aureus, ATCC 33592, 24 h, read-out: IC50
[14] = Staphylococcus aureus, ATCC 25923, 24 h
[15] = Staphylococcus aureus, ATCC 25923, 24 h, read-out: IC50
[16] = Staphylococcus aureus, ATCC 700699, 24 h
[17] = Staphylococcus aureus, ATCC 700699, 24 h, read-out: IC50
[18] = Staphylococcus aureus, ATCC 29213, 24 h
[19] = Staphylococcus aureus, ATCC 29213, 24 h, read-out: IC50

Compound	MIC [1, 12]	IC50 [1, 13]	Activity [2]	MIC [3]	MIC [4]	-logMIC [5]	MIC [5]	MIC [6]	MIC [7, 14]	IC50 [7, 15]	MIC [8, 16]	IC50 [8, 17]	MIC [9, 18]	IC50 [9, 19]	IC50 [1]	IC50 [10]	IC50 [7]	IC50 [8]	IC50 [11]	IC50 [9]
CCn1cc(C(=O)O)c(=O)c2cc(F)c(N3CCN(C(c4ccccc4)c4nnnn4C(C)(C)C)CC3)cc21 (configuration not stated)	0.38 µg/mL (≈ 0.712 µM)	0.34 µg/mL (≈ 0.637 µM)	Non-toxic	25 µg/mL (≈ 46.9 µM)	0.39 µg/mL (≈ 0.731 µM)	6.136	0.39 µg/mL (≈ 0.731 µM)	0.78 µg/mL (≈ 1.46 µM)	0.38 µg/mL (≈ 0.712 µM)	0.37 µg/mL (≈ 0.693 µM)	8.3 µg/mL (≈ 15.6 µM)	3.8 µg/mL (≈ 7.12 µM)	0.5 µg/mL (≈ 0.937 µM)	0.2 µg/mL (≈ 0.375 µM)	–	–	–	–	–	–
CCn1cc(C(=O)O)c(=O)c2cc(F)c(N3CCN(C(c4cccc5ccccc45)c4nnnn4C(C)(C)C)CC3)cc21 (configuration not stated)	0.7 µg/mL (≈ 1.2 µM)	0.2 µg/mL (≈ 0.343 µM)	Non-toxic	6.25 µg/mL (≈ 10.7 µM)	0.78 µg/mL (≈ 1.34 µM)	5.573	1.56 µg/mL (≈ 2.67 µM)	3.12 µg/mL (≈ 5.35 µM)	0.8 µg/mL (≈ 1.37 µM)	0.7 µg/mL (≈ 1.2 µM)	4.9 µg/mL (≈ 8.4 µM)	3.5 µg/mL (≈ 6 µM)	2.4 µg/mL (≈ 4.11 µM)	0.2 µg/mL (≈ 0.343 µM)	–	–	–	–	–	–
GENTAMICIN	–	–	–	–	–	–	–	–	–	–	–	–	–	–	> 50 µg/mL	1.7 µg/mL	1.7 µg/mL	> 50 µg/mL	1.7 µg/mL	> 50 µg/mL
CC(C)(C)n1nnnc1C(c1cccc2ccccc12)N1CCN(c2cc3c(cc2F)c(=O)c(C(=O)O)cn3Cc2ccc(C(F)(F)F)cc2)CC1 (configuration not stated)	> 50 µg/mL	> 50 µg/mL	–	50 µg/mL (≈ 70.1 µM)	50 µg/mL (≈ 70.1 µM)	4.455	50 µg/mL (≈ 70.1 µM)	50 µg/mL (≈ 70.1 µM)	50 µg/mL (≈ 70.1 µM)	50 µg/mL (≈ 70.1 µM)	50 µg/mL (≈ 70.1 µM)	50 µg/mL (≈ 70.1 µM)	50 µg/mL (≈ 70.1 µM)	> 50 µg/mL	–	–	–	–	–	–
CC(C)c1ccc(C(c2nnnn2C(C)(C)C)N2CCN(c3cc4c(cc3F)c(=O)c(C(=O)O)cn4Cc3ccc(C(F)(F)F)cc3)CC2)cc1 (configuration not stated)	0.87 µg/mL (≈ 1.23 µM)	0.8 µg/mL (≈ 1.13 µM)	–	3.12 µg/mL (≈ 4.42 µM)	3.12 µg/mL (≈ 4.42 µM)	4.149	3.12 µg/mL (≈ 4.42 µM)	6.25 µg/mL (≈ 8.86 µM)	3.12 µg/mL (≈ 4.42 µM)	1.8 µg/mL (≈ 2.55 µM)	1.6 µg/mL (≈ 2.27 µM)	1.4 µg/mL (≈ 1.98 µM)	3.1 µg/mL (≈ 4.39 µM)	1.5 µg/mL (≈ 2.13 µM)	–	–	–	–	–	–
CC(C)(C)n1nnnc1C(c1ccc(F)cc1)N1CCN(c2cc3c(cc2F)c(=O)c(C(=O)O)cn3Cc2ccc(C(F)(F)F)cc2)CC1 (configuration not stated)	2.5 µg/mL (≈ 3.67 µM)	0.5 µg/mL (≈ 0.733 µM)	Non-toxic	25 µg/mL (≈ 36.7 µM)	6.25 µg/mL (≈ 9.17 µM)	5.037	6.25 µg/mL (≈ 9.17 µM)	3.12 µg/mL (≈ 4.58 µM)	3.1 µg/mL (≈ 4.55 µM)	1 µg/mL (≈ 1.47 µM)	19.8 µg/mL (≈ 29 µM)	8.09 µg/mL (≈ 11.9 µM)	1.6 µg/mL (≈ 2.35 µM)	1.4 µg/mL (≈ 2.05 µM)	–	–	–	–	–	–
CC(C)(C)n1nnnc1C(c1ccncc1)N1CCN(c2cc3c(cc2F)c(=O)c(C(=O)O)cn3Cc2ccc(C(F)(F)F)cc2)CC1 (configuration not stated)	50 µg/mL (≈ 75.2 µM)	50 µg/mL (≈ 75.2 µM)	–	50 µg/mL (≈ 75.2 µM)	50 µg/mL (≈ 75.2 µM)	4.123	50 µg/mL (≈ 75.2 µM)	50 µg/mL (≈ 75.2 µM)	50 µg/mL (≈ 75.2 µM)	50 µg/mL (≈ 75.2 µM)	50 µg/mL (≈ 75.2 µM)	50 µg/mL (≈ 75.2 µM)	50 µg/mL (≈ 75.2 µM)	50 µg/mL (≈ 75.2 µM)	–	–	–	–	–	–
COc1ccc(C(c2nnnn2C2CCCCC2)N2CCN(c3cc4c(cc3F)c(=O)c(C(=O)O)cn4Cc3ccc(C(F)(F)F)cc3)CC2)c2ccccc12 (configuration not stated)	> 50 µg/mL	> 50 µg/mL	–	> 50 µg/mL	> 50 µg/mL	4.187	50 µg/mL (≈ 65 µM)	> 50 µg/mL	> 50 µg/mL	50 µg/mL (≈ 65 µM)	> 50 µg/mL	> 50 µg/mL	> 50 µg/mL	> 50 µg/mL	–	–	–	–	–	–
CCn1cc(C(=O)O)c(=O)c2cc(F)c(N3CCN(C(c4ccc(C(C)C)cc4)c4nnnn4C4CCCCC4)CC3)cc21 (configuration not stated)	1.6 µg/mL (≈ 2.66 µM)	1.5 µg/mL (≈ 2.49 µM)	–	50 µg/mL (≈ 83.1 µM)	3.12 µg/mL (≈ 5.19 µM)	4.682	12.5 µg/mL (≈ 20.8 µM)	12.5 µg/mL (≈ 20.8 µM)	19 µg/mL (≈ 31.6 µM)	8 µg/mL (≈ 13.3 µM)	50 µg/mL (≈ 83.1 µM)	50 µg/mL (≈ 83.1 µM)	3.3 µg/mL (≈ 5.48 µM)	3.1 µg/mL (≈ 5.15 µM)	–	–	–	–	–	–
CC(C)c1ccc(C(c2nnnn2C2CCCCC2)N2CCN(c3cc4c(cc3F)c(=O)c(C(=O)O)cn4Cc3ccc(C(F)(F)F)cc3)CC2)cc1 (configuration not stated)	> 50 µg/mL	50 µg/mL (≈ 68.3 µM)	–	> 50 µg/mL	> 50 µg/mL	4.165	50 µg/mL (≈ 68.3 µM)	> 50 µg/mL	50 µg/mL (≈ 68.3 µM)	> 50 µg/mL	50 µg/mL (≈ 68.3 µM)	> 50 µg/mL	> 50 µg/mL	50 µg/mL (≈ 68.3 µM)	–	–	–	–	–	–
CC(C)(C)n1nnnc1C(c1ccccc1)N1CCN(c2cc3c(cc2F)c(=O)c(C(=O)O)cn3Cc2ccc(C(F)(F)F)cc2)CC1 (configuration not stated)	50 µg/mL (≈ 75.3 µM)	50 µg/mL (≈ 75.3 µM)	–	25 µg/mL (≈ 37.7 µM)	12.5 µg/mL (≈ 18.8 µM)	4.122	50 µg/mL (≈ 75.3 µM)	25 µg/mL (≈ 37.7 µM)	50 µg/mL (≈ 75.3 µM)	50 µg/mL (≈ 75.3 µM)	50 µg/mL (≈ 75.3 µM)	50 µg/mL (≈ 75.3 µM)	50 µg/mL (≈ 75.3 µM)	50 µg/mL (≈ 75.3 µM)	–	–	–	–	–	–
COc1ccc(C(c2nnnn2C2CCCCC2)N2CCN(c3cc4c(cc3F)c(=O)c(C(=O)O)cn4Cc3ccc(C(F)(F)F)cc3)CC2)c(OC)c1OC (configuration not stated)	> 50 µg/mL	50 µg/mL (≈ 64.1 µM)	–	> 50 µg/mL	> 50 µg/mL	4.193	50 µg/mL (≈ 64.1 µM)	> 50 µg/mL	50 µg/mL (≈ 64.1 µM)	> 50 µg/mL	> 50 µg/mL	> 50 µg/mL	> 50 µg/mL	> 50 µg/mL	–	–	–	–	–	–
